# Laboratory results: publication PMC9138505, “Small Molecule 20S Proteasome Enhancer Regulates MYC Protein Stability and Exhibits Antitumor Activity in Multiple Myeloma” (Biomedicines, 2022)
# Where “and” joins values, the source holds several entries; their conditions need not be identical. Equal values may be shown once.
# Test system: RPMI-8226 cells
# Assay: Gene expression profiling, NanoString nCounter PanCancer Pathways Panel, ROSALIND analysis
# Format: cell-based, human
# Settings: RPMI-8226, TCH-165 samples 1-3
# Method: RPMI-8226 cells were treated with vehicle or TCH-165 (10 μM) for 4 h. Total RNA was obtained using the mirVana miRNA Isolation Kit, with phenol (Thermofisher Scientific; AM1560; Waltham, MA, USA). Total RNA was quantified by Qubit (Thermofisher Scientific; Q32855; Waltham, MA, USA). and gene expression was evaluated against the nCounter® PanCancer Pathways Panel^TM according to the standard NanoString protocol.
# Data were analyzed by ROSALIND® [36] with a hyperscale architecture developed by ROSALIND, Inc. (San Diego, CA, USA). Normalization, fold changes and p-values were calculated using criteria provided by NanoString. ROSALIND follows the nCounter® Advanced Analysis protocol of dividing counts within a lane by the geometric mean of the normalizer probes from the same lane. Housekeeping probes to be used for normalization are selected based on the geNorm algorithm, as implemented in the NormqPCR R library. Fold changes and p-values are calculated using the fast method as described in the nCounter Advanced Analysis 2.0 User Manual. The p-value adjustment is performed using the Benjamini–Hochberg method of estimating false discovery rates (FDR). Clustering of genes for the final heatmap of differentially expressed genes was done using the PAM (Partitioning Around Medoids) method using the fpc R library. Hypergeometric distribution was used to analyze the enrichment of pathways, gene ontology, domain structure and other ontologies. The topGO R library was used to determine local similarities and dependencies between GO terms in order to perform Elim pruning correction. Several database sources were referenced for enrichment analysis, including Interpro [40], NCBI [41], MSigDB [42, 43], REACTOME [44], WikiPathways. Enrichment was calculated relative to a set of background genes relevant to the experiment.
compound,measurement,value
CCOC(=O)[C@]1(c2ccccc2)N=C(c2ccc(OC)cc2)N(Cc2ccccc2)[C@@H]1c1ccc(NCc2ccccc2)cc1 [TCH-165],RPA3 normalized gene expression,6.234 and 6.077 and 5.975
same,RPS6KA5 normalized gene expression,8.162 and 8.249 and 8.109
same,RPS6KA6 normalized gene expression,4.308 and 4.154 and 4.653
same,RPS27A normalized gene expression,16.3114 and 16.3789 and 16.3612
same,RRAS2 normalized gene expression,6.59 and 6.242 and 6.0682
same,RUNX1T1 normalized gene expression,4.649 and 5.3768 and 5.0682
same,RUNX1 normalized gene expression,7.156 and 7.154 and 7.31
same,RXRG normalized gene expression,5.758 and 5.569 and 5.1271
same,SETBP1 normalized gene expression,9.152 and 8.96 and 8.955
same,SETD2 normalized gene expression,9.224 and 9.1619 and 9.096
same,SF3B1 normalized gene expression,10.9301 and 10.7965 and 10.7773
same,SFN normalized gene expression,7.723 and 7.476 and 7.668
same,SFRP1 normalized gene expression,5.401 and 5.0613 and 4.731
same,SFRP2 normalized gene expression,4.723 and 4.427 and 4.613
same,SFRP4 normalized gene expression,1.986 and 2.3768 and 2.483
same,SGK2 normalized gene expression,4.401 and 4.324 and 4.0682
same,SHC1 normalized gene expression,10.583 and 10.7262 and 10.7216
same,SHC2 normalized gene expression,3.723 and 3.962 and 3.653
same,SHC3 normalized gene expression,6.308 and 6.364 and 6.251
same,SIN3A normalized gene expression,9.8539 and 9.738 and 9.646
same,SIRT4 normalized gene expression,5.156 and 4.739 and 5.238
same,SIX1 normalized gene expression,3.571 and 3.3768 and 4.1271
same,SKP1 normalized gene expression,12.8613 and 12.7826 and 12.7408
same,SKP2 normalized gene expression,8.831 and 8.717 and 8.705
same,SMAD2 normalized gene expression,9.453 and 9.37 and 9.493
same,SMAD3 normalized gene expression,6.723 and 6.646 and 6.759
same,SMAD4 normalized gene expression,9.445 and 9.475 and 9.381
same,SMAD9 normalized gene expression,4.208 and 3.657 and 4.238
same,SMARCA4 normalized gene expression,10.8723 and 10.9931 and 10.958
same,SMARCB1 normalized gene expression,9.431 and 9.4165 and 9.399
same,SMC1A normalized gene expression,10.4464 and 10.4079 and 10.3505
same,SMC1B normalized gene expression,4.401 and 3.739 and 3.731
same,SMC3 normalized gene expression,10.9533 and 10.9237 and 10.9519
same,SMO normalized gene expression,5.986 and 5.657 and 5.341
same,SOCS1 normalized gene expression,6.892 and 6.769 and 6.683
same,SOCS2 normalized gene expression,5.955 and 5.476 and 5.5707
same,SOCS3 normalized gene expression,5.827 and 5.351 and 5.613
same,SOS1 normalized gene expression,8.45 and 8.321 and 8.235
same,SOS2 normalized gene expression,7.434 and 7.338 and 7.36
same,SOST normalized gene expression,3.86 and 3.3768 and 3.805
same,SOX9 normalized gene expression,5.044 and 5.093 and 4.731
same,SP1 normalized gene expression,7.695 and 7.694 and 7.736
same,SPOP normalized gene expression,6.308 and 6.324 and 6.0531
same,SPP1 normalized gene expression,11.9193 and 11.8738 and 11.9244
same,SPRY1 normalized gene expression,4.308 and 4.154 and 4.184
same,SPRY2 normalized gene expression,5.793 and 5.154 and 5.0682
same,SRSF2 normalized gene expression,10.5286 and 10.321 and 10.2662
same,SSX1 normalized gene expression,4.571 and 4.614 and 4.341
same,STAG2 normalized gene expression,11.0854 and 11.0452 and 11.0734
same,STAT1 normalized gene expression,8.92 and 8.846 and 9.0757
same,STAT3 normalized gene expression,9.132 and 9.111 and 9.089
same,STAT4 normalized gene expression,7.259 and 7.045 and 7.149
same,STK11 normalized gene expression,7.868 and 7.592 and 7.623
same,STMN1 normalized gene expression,12.569 and 12.5392 and 12.5363
same,SYK normalized gene expression,10.2633 and 10.2568 and 10.1565
same,TCF3 normalized gene expression,9.548 and 9.673 and 9.547
same,TCL1B normalized gene expression,2.986 and 2.569 and 2.943
same,TET2 normalized gene expression,7.142 and 7.021 and 6.918
same,TFDP1 normalized gene expression,10.7659 and 10.7019 and 10.7109
same,TGFB1 normalized gene expression,8.78 and 8.675 and 8.641
same,TGFB2 normalized gene expression,3.86 and 3.27 and 3.943
same,TGFB3 normalized gene expression,4.986 and 4.891 and 4.483
same,TGFBR2 normalized gene expression,7.169 and 7.004 and 6.787
same,THBS1 normalized gene expression,5.445 and 4.927 and 4.769
same,THBS4 normalized gene expression,3.208 and 2.569 and 3.291
same,TIAM1 normalized gene expression,5.793 and 5.476 and 5.414
same,TLR2 normalized gene expression,6.355 and 5.855 and 5.876
same,TLR4 normalized gene expression,8.52 and 8.18 and 8.197
same,TLX1 normalized gene expression,3.86 and 4.427 and 4.1271
same,TMPRSS2 normalized gene expression,6.182 and 6.093 and 6.1126
same,TNC normalized gene expression,4.723 and 4.7789 and 4.39
same,TNF normalized gene expression,4.986 and 4.817 and 5.0682
same,TNFAIP3 normalized gene expression,7.658 and 7.488 and 7.528
same,TNFRSF10A normalized gene expression,7.986 and 7.827 and 7.893
same,TNFRSF10B normalized gene expression,6.61 and 6.5 and 6.602
same,TNFRSF10C normalized gene expression,4.101 and 3.891 and 3.943
same,TNFRSF10D normalized gene expression,6.827 and 6.476 and 6.461
same,TNFSF10 normalized gene expression,8.202 and 8.1619 and 8.225
same,TNR normalized gene expression,5.686 and 5.297 and 5.5707
same,TP53 normalized gene expression,10.0117 and 9.981 and 9.929
same,TPO normalized gene expression,4.924 and 5.184 and 5.156
same,TSC1 normalized gene expression,8.714 and 8.273 and 8.399
same,TSHR normalized gene expression,4.649 and 4.476 and 4.39
same,TSPAN7 normalized gene expression,6.776 and 6.891 and 6.539
same,TTK normalized gene expression,9.89 and 9.8374 and 9.804
same,U2AF1 normalized gene expression,12.4063 and 12.4515 and 12.4562
same,UBB normalized gene expression,12.5802 and 12.4733 and 12.4875
same,UBE2T normalized gene expression,10.5402 and 10.5496 and 10.5687
same,UTY normalized gene expression,3.86 and 4.093 and 4.0682
same,VEGFA normalized gene expression,10.7951 and 10.7989 and 10.8309
